Entries after “also recorded” stand apart in the source; their conditions may differ.

Data set [1] deals with human PDL1 protein fused with 3×FLAG tag. The data set is described as follows: inhibitory effect of shPDL1 on over-expressed hPDL1 protein in 293T cells, Western blot. The class given is cell-based. Particulars: 293T cells co-transfected 1:1 with pcDNA3.3-hPDL1-3×FLAG, 48 hours. The protocol:
293T cells were transiently transfected with plasmids pSGU6/GFP/Neo-shPDL1-NC, pSGU6/GFP/Neo-shPDL1-1, pSGU6/GFP/Neo-shPDL1-2 and pSGU6/GFP/Neo-shPDL1-3 with pcDNA3.3-hPDL1-3×FLAG at an equimolar ratio (1:1), respectively, wherein plasmid pcDNA3.3-hPDL1-3×FLAG expresses the human PDL1 protein fused with 3×FLAG tag. Cell samples were collected after 48 hours, and Western blot analysis was performed after cell lysis.

Data set [2] deals with hPDL1 mRNA (human PDL1 mRNA). In words: inhibitory effect of shPDL1 on hPDL1 mRNA, Real-time PCR. Particulars: U251 and H460 cells, 24 h and 48 h after transfection, compared to control shRNA. The class given is cell-based. The protocol:
U251 and H460 cells were seeded in 12-well plates at 2×10^5 cells per well, respectively, 12 hours in advance. U251 and H460 cells in each well were transfected with 1.6 μg shRNA expression vector DNA in a ratio to 4 μl lipofectamin 2000. Two cell samples were taken over 24 hours and 48 hours, respectively. After the total RNA was extracted and reverse transcription was performed, the expression level of human PDL1 mRNA in cells was detected by Real-time PCR with the mRNA level of GAPDH gene as a control.

As to “shPDL1-#1 (GGGAAATGGAGGATAAGAACATTCAAGAGATGTTCTTATCCTCCATTTCCCTT; expressed or natural sequence)”, the “over-expressed hPDL1 protein” value in data set [1] is given as “significantly reduce”. Further, in data set [2], the “inhibitory effect on hPDL1 mRNA” value is reported as “inhibitory effect; also recorded: most significant inhibitory effect”. “shPDL1-#2: shRNA (coding sequence SEQ ID NO. 19) targeting region 430-452 of human PDL1 mRNA (DNA GGATCCAGTCACCTCTGAACATTCAAGAGATGTTCAGAGGTGACTGGATCCTT)”: the “inhibitory effect on hPDL1 mRNA” value in data set [2] was “inhibitory effect”.

As for “shPDL1-#3: shRNA (coding sequence SEQ ID NO. 22) targeting region 589-611 of human PDL1 mRNA (DNA GAGAATCAACACAACAACTAATTCAAGAGATTAGTTGTTGTGTTGATTCTCTT)”, the “inhibitory effect on hPDL1 mRNA” value in data set [2] was “inhibitory effect”.

These data come from US12653851B2, “Isolated recombinant oncolytic adenoviruses, pharmaceutical compositions, and uses thereof for drugs for treatment of tumors and/or cancers” (HANGZHOU CONVERD CO., LTD., priority 2017, dated 2026).
